# Several values for one entry are separate records, joined by “and”; a condition that tells them apart may be missing. Equal values may be shown once.
# Test system: skin blemishes caused by cellulite and localised adiposity
# Test: Thigh circumference measured with a measuring tape, dermatological test of the cosmetic gel
# Assay type: in vivo, female volunteers
# Set-up: RIGHT THIGH CIRCUMFERENCE 1/3 T0 / RIGHT THIGH CIRCUMFERENCE 3/3 T15 / RIGHT THIGH CIRCUMFERENCE 3/3 T30 / RIGHT THIGH CIRCUMFERENCE 3/3 T60 / RIGHT THIGH CIRCUMFERENCE 1/3 T15 / RIGHT THIGH CIRCUMFERENCE 1/3 T60 / RIGHT THIGH CIRCUMFERENCE 2/3 T0 / RIGHT THIGH CIRCUMFERENCE 2/3 T15 / RIGHT THIGH CIRCUMFERENCE 2/3 T30 / RIGHT THIGH CIRCUMFERENCE 2/3 T60 / RIGHT THIGH CIRCUMFERENCE 3/3 T0 / LEFT THIGH CIRCUMFERENCE 3/3 T60 / LEFT THIGH CIRCUMFERENCE 1/3 T15 / LEFT THIGH CIRCUMFERENCE 1/3 T30 / LEFT THIGH CIRCUMFERENCE 1/3 T60 / LEFT THIGH CIRCUMFERENCE 2/3 T0 / LEFT THIGH CIRCUMFERENCE 2/3 T15 / LEFT THIGH CIRCUMFERENCE 3/3 T0: unit not given beside the values
# Procedure: A dermatological test was carried out on 25 female volunteers between 18 and 65 years of age, with the backing of the Department of Physiological and Pharmacological Sciences of the university of Pavia. The investigation aimed to check the modification of three anatomical-physiological parameters, qualifying the unaesthetic-functional aspect connected to the manifestation of so-called cellulite and subcutaneous hypertriglyceridaemia: measurement of the skin folds, measurement of the circumference of the thighs, thermographic skin measurement.
# The test stretched out over 60 days with the continual daily application of the aforementioned preparation of cosmetic gel. The measurements were carried out after 15, 30 and 60 days. The detail of the test protocol and of the results obtained is shown hereafter.
# 25 female volunteers aged between 18 and 65, with the presence of skin blemishes caused by cellulite and localised adiposity, were selected according to the following criteria: good general state of health, absence of skin pathologies, not being under medication, commitment not to vary the normal daily routine, no medical history of atopy.
# The samples were tested by uniformly applying them on “Glute SX Glute DJ (Femoris Posto SX Femoris Posto DX Femoris Ant. SX Femoris Ant. DX” every day at least once per day for the entire duration of the test.
# At the time of inclusion in the study and during the subsequent checks after 15 days (T15), after 30 days (T30) and after 60 days (T60) of treatment the following instrumental measurements were taken: • plicometry (through a plicometer) • thigh circumference (through a measuring tape broken into millimetres) • contact thermography (through liquid crystal thermographic plates).
# [1] = MEDIA of 25 volunteers, T0 at inclusion, before treatment
# [2] = MEDIA of 25 volunteers, after 15 days of daily gel application
# [3] = MEDIA of 25 volunteers, after 30 days of daily gel application
# [4] = MEDIA of 25 volunteers, after 60 days of daily gel application
# [5] = individual volunteer, T0 at inclusion, before treatment
# [6] = individual volunteer, after 15 days of daily gel application
# [7] = individual volunteer, after 30 days of daily gel application
# [8] = individual volunteer, after 60 days of daily gel application
substance,measurement,setting,value
carnitine hydroxycitrate [carnitine hydroxy citrate],"LEFT THIGH CIRCUMFERENCE 1/3 T0, MEDIA",[1],53.1
same,"LEFT THIGH CIRCUMFERENCE 2/3 T0, MEDIA",[1],50.2
same,"LEFT THIGH CIRCUMFERENCE 3/3 T0, MEDIA",[1],40.3
same,"RIGHT THIGH CIRCUMFERENCE 1/3 T0, MEDIA",[1],53.1
same,"RIGHT THIGH CIRCUMFERENCE 2/3 T0, MEDIA",[1],50.3
same,"RIGHT THIGH CIRCUMFERENCE 3/3 T0, MEDIA",[1],40.4
same,"LEFT THIGH CIRCUMFERENCE 1/3 T15, MEDIA",[2],52.7
same,"LEFT THIGH CIRCUMFERENCE 2/3 T15, MEDIA",[2],49.7
same,"LEFT THIGH CIRCUMFERENCE 3/3 T15, MEDIA",[2],39.8
same,"RIGHT THIGH CIRCUMFERENCE 1/3 T15, MEDIA",[2],53.3
same,"RIGHT THIGH CIRCUMFERENCE 2/3 T15, MEDIA",[2],49.2
same,"RIGHT THIGH CIRCUMFERENCE 3/3 T15, MEDIA",[2],39.5
same,"LEFT THIGH CIRCUMFERENCE 1/3 T30, MEDIA",[3],51.6
same,"LEFT THIGH CIRCUMFERENCE 2/3 T30, MEDIA",[3],48.8
same,"LEFT THIGH CIRCUMFERENCE 3/3 T30, MEDIA",[3],38.7
same,"RIGHT THIGH CIRCUMFERENCE 1/3 T30, MEDIA",[3],51.8
same,"RIGHT THIGH CIRCUMFERENCE 2/3 T30, MEDIA",[3],48.8
same,"RIGHT THIGH CIRCUMFERENCE 3/3 T30, MEDIA",[3],38.8
same,"LEFT THIGH CIRCUMFERENCE 1/3 T60, MEDIA",[4],50.7
same,"LEFT THIGH CIRCUMFERENCE 2/3 T60, MEDIA",[4],47.9
same,"LEFT THIGH CIRCUMFERENCE 3/3 T60, MEDIA",[4],38.1
same,"RIGHT THIGH CIRCUMFERENCE 1/3 T60, MEDIA",[4],50.7
same,"RIGHT THIGH CIRCUMFERENCE 2/3 T60, MEDIA",[4],47.7
same,"RIGHT THIGH CIRCUMFERENCE 3/3 T60, MEDIA",[4],38.0
same,LEFT THIGH CIRCUMFERENCE 1/3 T0,[5],55.0 and 52.8 (2×) and 51.7 and 64.0 and 55.7 (3×) and 51.0 and 47.6 and 49.0 and 52.5 and 56.6 and 58.1 and 55.2 and 47.1 and 47.0 and 48.5 and 52.1 and 50.2 and 52.7 and 49.7 and 60.6 and 48.2 and 59.2
same,LEFT THIGH CIRCUMFERENCE 2/3 T0,[5],49.9 and 51.3 and 49.0 and 58.4 and 52.4 and 46.9 and 46.2 and 47.9 (2×) and 50.4 and 52.9 and 55.9 (2×) and 56.7 and 48.9 and 46.7 and 52.6 and 44.0 and 45.4 (2×) and 52.0 and 51.4 and 48.2 and 44.9 and 54.6
same,LEFT THIGH CIRCUMFERENCE 3/3 T0,[5],41.2 (2×) and 39.7 (2×) and 48.0 and 37.6 (2×) and 36.4 (2×) and 37.7 and 38.4 and 39.8 and 37.8 and 43.1 and 43.2 and 37.4 and 38.7 (2×) and 37.9 and 47.2 and 44.2 and 38.6 and 43.8 and 36.3 and 46.4
same,RIGHT THIGH CIRCUMFERENCE 1/3 T0,[5],55.0 and 53.2 and 52.0 (2×) and 64.7 and 55.7 (2×) and 50.6 and 48.1 and 49.0 and 53.0 and 56.9 and 59.0 and 55.2 and 52.6 and 47.0 (2×) and 48.3 and 52.2 and 54.9 and 50.2 and 50.8 and 60.8 and 48.2 and 56.0
same,RIGHT THIGH CIRCUMFERENCE 2/3 T0,[5],49.9 and 51.3 and 49.0 and 58.4 and 52.5 and 47.2 and 46.5 and 47.9 (2×) and 50.4 and 52.9 and 55.9 and 56.8 and 49.2 and 46.7 and 52.6 and 44.0 and 45.4 (2×) and 52.0 and 51.4 and 48.2 and 45.3 and 55.6 and 54.6
same,RIGHT THIGH CIRCUMFERENCE 3/3 T0,[5],41.2 (2×) and 39.7 and 48.0 and 37.6 (2×) and 36.4 (2×) and 37.7 and 38.4 (2×) and 39.8 and 37.8 and 45.3 and 43.2 and 37.4 and 38.6 and 39.0 and 37.9 and 39.5 and 47.5 and 44.1 and 43.8 and 36.3 and 46.4
same,LEFT THIGH CIRCUMFERENCE 1/3 T15,[6],54.5 and 52.3 (2×) and 51.2 and 63.5 and 55.2 (3×) and 50.5 and 47.1 and 48.5 and 52.0 and 56.1 and 57.6 and 54.7 and 46.6 and 46.5 and 48.0 and 51.6 and 49.7 and 52.2 and 49.2 and 60.5 and 47.7 and 58.7
same,LEFT THIGH CIRCUMFERENCE 2/3 T15,[6],49.4 and 50.8 and 48.5 and 57.9 and 51.9 and 46.4 and 45.7 and 47.4 (2×) and 49.9 and 52.4 and 55.4 (2×) and 56.2 and 48.4 and 46.2 and 52.1 and 43.5 and 44.9 (2×) and 51.5 and 50.9 and 47.7 and 44.4 and 54.1
same,LEFT THIGH CIRCUMFERENCE 3/3 T15,[6],40.7 (2×) and 39.2 (2×) and 47.5 and 37.1 (2×) and 35.9 (2×) and 37.2 and 37.9 and 39.3 and 37.3 and 42.6 and 42.7 and 36.9 and 38.2 (2×) and 37.4 and 46.7 and 43.7 and 38.1 and 43.3 and 35.8 and 45.9
same,RIGHT THIGH CIRCUMFERENCE 1/3 T15,[6],55.9 and 52.8 and 53.2 and 65.3 and 55.3 and 49.4 and 48.4 and 49.8 and 53.3 and 57.6 and 59.2 and 54.3 and 50.5 and 48.1 and 56.3 and 48.0 (2×) and 48.8 and 51.8 and 54.5 and 51.0 and 50.8 and 50.4 and 60.4 and 59.8
same,RIGHT THIGH CIRCUMFERENCE 2/3 T15,[6],48.2 and 49.6 and 47.3 (2×) and 56.7 and 50.7 and 46.2 (2×) and 44.5 and 49.8 and 52.3 and 55.6 and 56.5 and 48.7 and 45.0 and 50.9 and 44.0 and 45.2 and 51.8 and 51.0 and 47.9 and 43.2 and 54.2 and 43.7 and 52.9
same,RIGHT THIGH CIRCUMFERENCE 3/3 T15,[6],40.6 and 40.8 and 37.7 (3×) and 49.2 and 38.5 (2×) and 35.3 and 37.2 and 37.1 and 39.7 and 44.5 and 42.3 and 36.6 and 39.2 and 35.5 and 38.7 and 39.4 and 43.2 and 37.5 and 36.4 and 43.9 and 35.8 and 45.5
same,LEFT THIGH CIRCUMFERENCE 1/3 T30,[7],53.4 and 51.2 (2×) and 50.1 and 62.4 and 54.2 and 49.2 and 46.0 and 47.4 and 50.9 and 55.0 and 56.5 and 53.6 and 45.5 and 54.1 and 45.4 and 46.9 and 50.5 and 54.0 and 49.7 and 52.3 and 48.1 and 59.0 and 46.6 and 57.6
same,LEFT THIGH CIRCUMFERENCE 2/3 T30,[7],48.5 and 49.9 and 47.6 and 57.0 and 51.0 and 45.5 and 44.8 and 46.5 (2×) and 49.0 and 51.5 and 54.5 (2×) and 55.3 and 47.5 and 45.3 and 51.2 and 42.6 and 44.0 (2×) and 50.6 and 50.0 and 46.8 and 43.5 and 53.2
same,LEFT THIGH CIRCUMFERENCE 3/3 T30,[7],39.5 (2×) and 38.0 (2×) and 46.3 and 35.9 (2×) and 34.7 (2×) and 36.0 and 36.7 and 38.1 (2×) and 36.1 and 41.4 and 41.5 and 35.7 and 37.0 (2×) and 36.2 and 45.5 and 43.6 and 42.1 and 34.6 and 44.7
same,RIGHT THIGH CIRCUMFERENCE 1/3 T30,[7],54.5 and 51.4 and 51.8 and 63.9 and 53.9 and 48.0 and 47.0 and 48.4 and 51.9 and 56.2 and 57.8 and 52.9 and 49.3 and 46.7 and 53.6 and 47.1 and 46.5 and 49.9 and 53.0 and 48.6 and 48.5 and 49.0 and 59.0 and 46.4 and 58.4
same,RIGHT THIGH CIRCUMFERENCE 2/3 T30,[7],48.2 and 48.0 and 46.8 and 56.4 and 50.3 and 46.5 and 44.3 and 44.6 (2×) and 49.6 and 51.7 and 55.4 and 56.0 and 48.6 and 45.0 and 50.0 and 44.0 and 50.6 and 51.0 and 47.0 and 47.8 and 43.0 and 53.9 and 44.2 and 51.3
same,RIGHT THIGH CIRCUMFERENCE 3/3 T30,[7],40.5 and 40.3 and 36.6 (2×) and 48.1 and 38.2 and 34.2 and 36.4 (2×) and 38.7 (2×) and 38.4 and 43.4 and 41.0 and 36.2 and 36.8 (2×) and 35.2 and 37.8 and 38.3 and 42.5 and 35.7 and 42.8 and 35.6 and 44.3
same,LEFT THIGH CIRCUMFERENCE 1/3 T60,[8],52.7 and 50.5 (2×) and 49.4 and 61.7 and 53.4 (2×) and 48.7 and 44.9 and 46.7 and 50.0 and 53.7 and 55.8 and 51.7 and 44.8 and 52.9 and 44.7 and 46.2 and 49.8 and 48.5 and 50.4 and 47.4 and 57.9 and 45.9 and 56.9
same,LEFT THIGH CIRCUMFERENCE 2/3 T60,[8],47.6 and 49.0 and 46.7 and 56.1 and 50.1 and 44.6 and 43.9 and 45.6 (2×) and 48.1 and 50.6 and 53.6 (2×) and 54.4 and 46.6 and 44.4 and 50.3 and 41.7 and 43.1 (2×) and 49.7 and 49.1 and 45.9 and 42.6 and 52.3
same,LEFT THIGH CIRCUMFERENCE 3/3 T60,[8],39.0 (2×) and 37.5 (2×) and 45.8 and 35.4 (2×) and 34.2 (2×) and 35.5 and 36.2 and 37.6 and 35.6 and 41.6 (2×) and 41.0 and 35.2 and 36.5 (2×) and 35.7 and 45.0 and 42.0 and 36.4 and 34.1 and 44.2
same,RIGHT THIGH CIRCUMFERENCE 1/3 T60,[8],53.8 and 50.7 and 50.0 and 62.4 and 53.2 and 47.3 and 46.0 and 47.2 and 51.0 and 55.5 and 56.7 and 52.0 and 48.4 and 44.7 and 52.8 and 45.0 and 45.9 and 49.3 and 51.8 and 48.1 and 48.5 and 48.3 and 57.8 and 45.7 and 56.5
same,RIGHT THIGH CIRCUMFERENCE 2/3 T60,[8],46.8 and 48.1 and 46.5 and 56.4 and 49.2 and 43.7 and 44.5 and 44.7 and 47.2 and 49.7 and 53.8 and 56.0 and 46.3 and 43.5 (2×) and 49.4 and 44.3 and 50.2 and 48.3 and 45.9 and 45.0 and 41.7 and 52.7 and 43.2 and 50.8
same,RIGHT THIGH CIRCUMFERENCE 3/3 T60,[8],38.2 (2×) and 39.3 and 36.2 (3×) and 47.7 and 37.0 (2×) and 33.8 and 35.7 and 35.6 and 43.0 and 40.8 and 34.8 and 37.7 and 34.2 and 37.2 and 37.9 and 41.7 and 36.0 and 33.7 and 42.4 and 34.3 and 44.0

# Reference: US20070092474A1, “Carnitine salt, preliposome which contains it and dermocosmetic formula for topical use based upon said carnitine salt” (priority 2003, published 2007)
